Reference: PubChem BioAssay (NCI)
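Values below derive from 48-hour exposures of cells grown in 96-well plates, with endpoints linearly interpolated between the two concentrations bracketing the appropriate inhibition level. The concentration for 50% growth inhibition is given as GI50. Definition used: TGI = concentration required for complete inhibition of growth.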

Experiments:
Assay in all cases: NCI tumour cell line growth inhibition, 48 h
786-0 renal = test system: 786-0 renal
A498 renal = test system: A498 renal
A549 NSCLC = test system: A549 NSCLC
ACHN renal = test system: ACHN renal
BT-549 breast = test system: BT-549 breast
CAKI-1 renal = test system: CAKI-1 renal
CCRF-CEM leukemia = test system: CCRF-CEM leukemia
COLO 205 colon = test system: COLO 205 colon
DU-145 prostate = test system: DU-145 prostate
EKVX NSCLC = test system: EKVX NSCLC
HCC-2998 colon = test system: HCC-2998 colon
HCT-116 colon = test system: HCT-116 colon
HCT-15 colon = test system: HCT-15 colon
HL-60(TB) leukemia = test system: HL-60(TB) leukemia
HOP-62 NSCLC = test system: HOP-62 NSCLC
HOP-92 NSCLC = test system: HOP-92 NSCLC
HS 578T breast = test system: HS 578T breast
HT29 colon = test system: HT29 colon
IGROV1 ovarian = test system: IGROV1 ovarian
K-562 leukemia = test system: K-562 leukemia
KM12 colon = test system: KM12 colon
LOX IMVI melanoma = test system: LOX IMVI melanoma
M14 melanoma = test system: M14 melanoma
MALME-3M melanoma = test system: MALME-3M melanoma
MCF7 breast = test system: MCF7 breast
MDA-MB-231 breast = test system: MDA-MB-231 breast
MDA-MB-435 = test system: MDA-MB-435
MOLT-4 leukemia = test system: MOLT-4 leukemia
NCI-H226 lung = test system: NCI-H226 lung
NCI-H23 lung = test system: NCI-H23 lung
NCI-H460 lung = test system: NCI-H460 lung
NCI-H522 lung = test system: NCI-H522 lung
NCI/ADR-RES ovarian = test system: NCI/ADR-RES ovarian
OVCAR-3 ovarian = test system: OVCAR-3 ovarian
OVCAR-4 ovarian = test system: OVCAR-4 ovarian
OVCAR-5 ovarian = test system: OVCAR-5 ovarian
OVCAR-8 ovarian = test system: OVCAR-8 ovarian
PC-3 prostate = test system: PC-3 prostate
RPMI-8226 leukemia = test system: RPMI-8226 leukemia
RXF 393 renal = test system: RXF 393 renal
SF-268 CNS = test system: SF-268 CNS
SF-295 CNS = test system: SF-295 CNS
SF-539 CNS = test system: SF-539 CNS
SK-MEL-2 melanoma = test system: SK-MEL-2 melanoma
SK-MEL-28 melanoma = test system: SK-MEL-28 melanoma
SK-MEL-5 melanoma = test system: SK-MEL-5 melanoma
SK-OV-3 ovarian = test system: SK-OV-3 ovarian
SN12C renal = test system: SN12C renal
SNB-19 CNS = test system: SNB-19 CNS
SNB-75 CNS = test system: SNB-75 CNS
SR leukemia = test system: SR leukemia
SW-620 colon = test system: SW-620 colon
T-47D breast = test system: T-47D breast
TK-10 renal = test system: TK-10 renal
U251 CNS = test system: U251 CNS
UACC-62 melanoma = test system: UACC-62 melanoma
UO-31 renal = test system: UO-31 renal

CCCCCCCC(=O)SCC/C=C/[C@@H]1CC(=O)NCc2cc(ccn2)C2=N[C@@](C)(CS2)C(=O)N[C@@H](C(C)C)C(=O)O1
GI50 (786-0 renal): 29.1 nM
TGI (786-0 renal): > 33.3 µM
GI50 (A498 renal): 5.91 nM
TGI (A498 renal): 41.8 nM
GI50 (A549 NSCLC): 11.6 nM
GI50 (ACHN renal): 43.3 nM
TGI (ACHN renal): 434 nM
GI50 (BT-549 breast): 43.2 nM
TGI (BT-549 breast): > 33.3 µM
GI50 (CAKI-1 renal): 104 nM
TGI (CAKI-1 renal): 665 nM
GI50 (CCRF-CEM leukemia): 23.1 nM
TGI (CCRF-CEM leukemia): > 33.3 µM
GI50 (COLO 205 colon): 51.3 nM
TGI (COLO 205 colon): 147 nM
GI50 (DU-145 prostate): 13.8 nM
TGI (DU-145 prostate): > 33.3 µM
GI50 (EKVX NSCLC): 37.6 nM
TGI (EKVX NSCLC): > 33.3 µM
GI50 (HCC-2998 colon): 25.6 nM
TGI (HCC-2998 colon): 245 nM
GI50 (HCT-116 colon): 4.68 nM
TGI (HCT-116 colon): 46.6 nM
GI50 (HCT-15 colon): 141 nM
TGI (HCT-15 colon): > 33.3 µM
GI50 (HL-60(TB) leukemia): 24.2 nM
TGI (HL-60(TB) leukemia): > 33.3 µM
GI50 (HOP-62 NSCLC): 9.58 nM
GI50 (HOP-92 NSCLC): 26.8 nM
TGI (HOP-92 NSCLC): 214 nM
GI50 (HS 578T breast): 7.45 nM
TGI (HS 578T breast): 203 nM
GI50 (HT29 colon): 11.2 nM
TGI (HT29 colon): > 33.3 µM
GI50 (IGROV1 ovarian): 9.56 nM
TGI (IGROV1 ovarian): 132 nM
GI50 (K-562 leukemia): 24.8 nM
TGI (K-562 leukemia): > 33.3 µM
GI50 (KM12 colon): 16.9 nM
TGI (KM12 colon): 2410 nM
GI50 (LOX IMVI melanoma): 17.2 nM
TGI (LOX IMVI melanoma): 66.6 nM
GI50 (M14 melanoma): 11.1 nM
TGI (M14 melanoma): > 13.3 µM
GI50 (MALME-3M melanoma): 8.64 nM
TGI (MALME-3M melanoma): > 33.3 µM
GI50 (MCF7 breast): 37.7 nM
TGI (MCF7 breast): > 33.3 µM
GI50 (MDA-MB-231 breast): 50 nM
TGI (MDA-MB-231 breast): > 33.3 µM
GI50 (MDA-MB-435): 11.5 nM
GI50 (MOLT-4 leukemia): 13.3 nM
TGI (MOLT-4 leukemia): > 28.7 µM
GI50 (NCI-H226 lung): 81.8 nM
TGI (NCI-H226 lung): 1620 nM
GI50 (NCI-H23 lung): 39.4 nM
TGI (NCI-H23 lung): > 33.3 µM
GI50 (NCI-H460 lung): 7.54 nM
TGI (NCI-H460 lung): > 11.3 µM
GI50 (NCI-H522 lung): 7.21 nM
TGI (NCI-H522 lung): 204 nM
GI50 (NCI/ADR-RES ovarian): 241 nM
TGI (NCI/ADR-RES ovarian): > 33.3 µM
GI50 (OVCAR-3 ovarian): 36.2 nM
TGI (OVCAR-3 ovarian): 362 nM
GI50 (OVCAR-4 ovarian): 53.5 nM
TGI (OVCAR-4 ovarian): > 33.3 µM
GI50 (OVCAR-5 ovarian): < 11.3 nM
TGI (OVCAR-5 ovarian): > 33.3 µM
GI50 (OVCAR-8 ovarian): 10.9 nM
TGI (OVCAR-8 ovarian): > 33.3 µM
GI50 (PC-3 prostate): 12.4 nM
TGI (PC-3 prostate): > 33.3 µM
GI50 (RPMI-8226 leukemia): 116 nM
TGI (RPMI-8226 leukemia): > 33.3 µM
GI50 (RXF 393 renal): 12.8 nM
TGI (RXF 393 renal): 82.2 nM
GI50 (SF-268 CNS): 38.7 nM
TGI (SF-268 CNS): > 9.59 µM
GI50 (SF-295 CNS): 16.6 nM
TGI (SF-295 CNS): 147 nM
GI50 (SF-539 CNS): 20.3 nM
TGI (SF-539 CNS): > 33.3 µM
GI50 (SK-MEL-2 melanoma): 15 nM
TGI (SK-MEL-2 melanoma): 595 nM
GI50 (SK-MEL-28 melanoma): 12.5 nM
TGI (SK-MEL-28 melanoma): 1020 nM
GI50 (SK-MEL-5 melanoma): 11.7 nM
TGI (SK-MEL-5 melanoma): 51 nM
GI50 (SK-OV-3 ovarian): 8.41 nM
TGI (SK-OV-3 ovarian): 71.6 nM
GI50 (SN12C renal): 64.1 nM
TGI (SN12C renal): > 33.3 µM
GI50 (SNB-19 CNS): 109 nM
TGI (SNB-19 CNS): > 33.3 µM
GI50 (SNB-75 CNS): 7.9 nM
TGI (SNB-75 CNS): > 33.3 µM
GI50 (SR leukemia): 8.45 nM
TGI (SR leukemia): > 33.3 µM
GI50 (SW-620 colon): 74.9 nM
TGI (SW-620 colon): 2490 nM
GI50 (T-47D breast): 83.8 nM
TGI (T-47D breast): 616 nM
GI50 (TK-10 renal): < 14.1 nM
TGI (TK-10 renal): 173 nM
GI50 (U251 CNS): 29.1 nM
TGI (U251 CNS): 309 nM
GI50 (UACC-62 melanoma): 6.2 nM
TGI (UACC-62 melanoma): 50.7 nM
GI50 (UO-31 renal): 26.4 nM
TGI (UO-31 renal): 426 nM
